Measured values as given in patent US6632921B1, “Seryl-lysyl-based peptide and peptidomimetic inhibitors of N-myristoyl transferase as anti-infective agents” (G. D Searle & Co, priority 1995, dated 2003).
Read-outs that look alike come from different tables or passages of the source. Non-standard residues stand in square brackets, D forms with d. Residues, ends and D or L forms follow the SMILES beside them. Cha = N[C@@H](CC1CCCCC1)C(=O)O; Aun = NCCCCCCCCCCC(=O)O

How the values were obtained:
Candida albicans NMT = biological target: T1, Candida albicans NMT (Candida albicans, UniProt P30418); experiment: NMT enzyme inhibition assay (radiochemical HPLC end-point), Candida NMT; assay type: biochemical; conditions: for IC50: Table V, read-out: IC50 caNMT
T1 construct: made in house; host or cells: E. coli
T1 sequence (P30418 1-451): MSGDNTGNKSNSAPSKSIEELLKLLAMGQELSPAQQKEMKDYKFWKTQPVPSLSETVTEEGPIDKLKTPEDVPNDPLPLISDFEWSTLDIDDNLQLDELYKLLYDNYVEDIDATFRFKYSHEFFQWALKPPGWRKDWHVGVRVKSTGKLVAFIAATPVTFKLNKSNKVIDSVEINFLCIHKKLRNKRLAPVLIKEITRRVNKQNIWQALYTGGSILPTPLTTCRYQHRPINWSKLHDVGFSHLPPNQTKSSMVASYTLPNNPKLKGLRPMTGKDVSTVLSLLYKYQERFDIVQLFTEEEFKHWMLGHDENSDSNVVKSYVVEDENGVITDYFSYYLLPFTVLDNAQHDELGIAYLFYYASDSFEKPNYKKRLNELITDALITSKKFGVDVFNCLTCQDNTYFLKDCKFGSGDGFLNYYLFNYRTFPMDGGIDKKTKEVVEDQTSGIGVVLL
Description: Recombinant Candida albicans and human NMTs were expressed and purified from E. coli using previously described protocols. [D. A. Towler et al, Proc. Natl. Acad. Sci. USA, 84, 2707-2712 (1987); R. C. Weigand et al, J. Biol. Chem., 267, 8591-8598 (1992); R. J. Duronio et al, Proc. Natl. Acad. Sci. USA, 89, 4129-4133 (1992)] The ability of compounds to inhibit Candida NMT enzymatic activity was assessed using a radiochemical HPLC end-point assay as described previously for Saccharomyces cerevisiae and human NMTs. [D. Towler et al, Proc. Natl. Acad. Sci. USA, 83, 2812-2816 (1986); W. J. Rocque et al, J. Biol. Chem., 268, 9964-9971 (1991)] The donor substrate [^3H]myristoyl-coenzyme A was enzymatically synthesized from [^3H]myristic acid (50 Ci/mmol, Amersham, Arlington Heights, Ill.) and coenzyme A (Fluka Chemical Corp., Ronkonkoma, N.Y.), and purified as described previously. [W. J. Rocque et al, J. Biol. Chem., 268, 9964-9971 (1991)] The peptide acceptor substrate GNAASARR-NH2 was prepared by solid-phase peptide synthesis using the t-Boc amino acid methodology, followed by HF treatment and reverse-phase HPLC purification. Inhibitor stock solutions were prepared at 22 mM in DMSO; the final concentration of DMSO in each assay was 0.5% (v/v). Inhibition assays were carried out by combining variable amounts of inhibitor or buffer with […] of [^3H]myristoyl-coenzyme A (1 μCi, 9.09 Ci/mmol) and 2.2 nmoles of GNAASARR-NH2 in a total volume of 60 μL of 0.2 M N-[2-hydroxy-ethyl]piperazine-N′-[2-ethanesulfonic acid], pH 7.4, 2 mM DL-dithiothreitol, 0.2 mM ethylene glycol-bis-(β-aminoethyl ether) N,N,N′,N′-tetraacetic acid, and initiating the reaction by the addition of 50 μL of a Candida NMT solution (7-12 ng/50 μL). Assays with human NMT were identical except that they used 60-75 ng/50 μL of enzyme solution and 0.22 nmoles of GNAASARR-NH2. The reaction was quenched after 10 minutes at 24° C. by the addition of ice-cold MeOH, and the reaction products were separated and measured using C4 reverse-phase HPLC (Vydac 214TP10415; Separations Group, Hesperia, Calif.) and in-line scintillation counting using a Radiomatic A250 (Packard Instruments, Downers Grove, Ill.) and Ecolite(+) (ICN Biomedical, Costa Mesa, Calif.) as the scintillant. Selectivity was determined by calculating the ratio of the IC50 against human NMT to the IC50 against C. albicans NMT.

[1] = tested on: Candida albicans, strain B311; experiment: Antifungal susceptibility testing, microdilution broth, pH 5.4/30° C./YNB; assay type: cell-based
Description: Antifungal Screens were set up initially against Candida albicans, strain B311, and Cryotococcus neoformans, strain L210425. Both pathogens, (originally from the stock culture collection, Medical mycology research center, Washington university-Barnes hospital), were obtained from Dr.Kobayashi, Prof.of infectious diseases, Washington University, St.Louis, Mo.
All cultures are maintained at 30° C. on Sabouraud's dextrose agar slants and subcultured at monthly intervals to fresh medium. All inocula for susceptibility testing are prepared in yeast nitogen base(YNB, Difco) broth.
A loopful of growth from Sabouraud dextrose agar slant is inoculated into 4 ml of YNB broth media and incubated at 30° C. overnight (18-24 hrs) with constant agitation (Gyratory Shaker, New Brunswick Scientific). Prior to setting up susceptibility testing, the organisms are counted in a hemocytometer, and diluted as needed into assay media.
1) (Assay at DH 5.4/30° C. Incubation/YNB Media).
Antifungal assays were carried out initially by a modification of the method published by Jones, et. al; (1), and communicated to Searle by Dr. Kobayashi, Washington University. [R. N. Jones et al, Manual of Clinical Microbiology, 4th ed., (1985)]
The antifungal susceptibility testing consists of a microdilution broth procedure performed in 96 well microtiter plates (Costar, cat#3799). Briefly, test compounds from a 20 mM stock solution in DMSO are diluted into sterile, deionized water (final DMSO concentration not exceeding 1%), to yield 2× the desired concentration (100 uM, 10 uM and 1 uM for an initial screen, or a selected concentration range in serial 2 fold dilutions for EC50 determination). One hundred microliters (100 ul) of each concentration is dispensed into triplicate wells of a 96 well microtiter plate. Appropriate dilutions of a suspension of C.albicans (1×10^6 cells/ml) in 2× YNB is distributed into each of the wells, including growth control wells containing no test compound as well as control wells with 0.5% DMSO. Amphotericin B at 0.05, 1 and 5 ug/ml is included in each assay plate as a positive control. The plates are incubated at 30° C. and cell growth is scored by reading the absorbance at 590 nm on an Elisa plate reader(Dynatech, MR.5000).

C. albicans 516 = experiment: Antifungal susceptibility testing, pH 7.0/35° C., 1x10^3 cells/mL; assay type: cell-based, Candida albicans; conditions: Candida albicans, 516; pH 7.0/35° C./1x10^3 cells/mL, 48 hrs; read-out: EC50 - 48 HRS C.albicans (516)
Description: (§1) 2) Assay at pH 7.0/35° C. Incubation/(Candida Strains Only).
(§2) Based on several papers published during 1990-1993 regarding the standardization of testing procedures at multiple research centers, and the finding that, inoculum size, pH of media, and the temperature of incubation drastically affect the antifungal activity of several compounds, particularly in the Azole class of antifungals, an additional assay was configured at pH 7.0 for Candida albicans. [M. A. Pfaller et al, Antimicrobial Agents and Chemotherapy, 34, 1648-1654 (1990); F. C. Odds et al, Antimicrobial Agents and Chemotherapy, 36, 1727-1737 (1992); R. A. Cook et al, Antimicrobial Agents and Chemotherapy, 34, 1542-1545 (1990)]
(§3) The assay format is identical to the first one with the following modifications: C.albicans cells are diluted to 1×10^3 cells/ml into 2× buffered YNB (YNB buffered with 1.65 mM MOPS, pH 7.0, with the addition of 2% Dextrose and 0.08% casamino acids mixture, bio 101. inc,cat #10420-100). Incubation is carried out at 35° C. instead of 30° C., and cell growth is monitored at 590 nm at 24 and 48 hrs as described. All other aspects of the assay are identical. This assay was validated with amphotericin B, fluconazole, cilofungin (Ly-121019), Nikkomycin and terbinafine using the following Candida strains- (C.albicans, B311, C.parasilosis, C.tropicalis, C.lusitaniae, C.glabrata, and C. albicans 516)-Table II. All strains were from Dr. Kobayashi, Washington university.

C.parasilosis = experiment: as above; assay type: cell-based; conditions: pH 7.0/35° C./1x10^3 cells/mL, 48 hrs; read-out: EC50 - 48 HRS C.para
Description: as §1, §2, §3

C.albicans, B311 = experiment: as above; assay type: cell-based; conditions: Candida albicans, B311; pH 7.0/35° C./1x10^3 cells/mL, 48 hrs; read-out: EC50 - 48 HRS C.albicans
Description: as §1, §2, §3

C.lusitaniae = experiment: as above; assay type: cell-based; conditions: Clavispora lusitaniae; pH 7.0/35° C./1x10^3 cells/mL, 48 hrs; read-out: EC50 - 48 HRS C.lusi.
Description: as §1, §2, §3

C.glabrata = experiment: as above; assay type: cell-based; conditions: Nakaseomyces glabratus; pH 7.0/35° C./1x10^3 cells/mL, 48 hrs; read-out: EC50 - 48 HRS C.glab.
Description: as §1, §2, §3

C.tropicalis = experiment: as above; assay type: cell-based; conditions: Candida tropicalis; pH 7.0/35° C./1x10^3 cells/mL, 48 hrs; read-out: EC50 - 48 HRS C.trop.
Description: as §1, §2, §3

[2] = read-out: % inhibition of caNMT
[3] = B311, 24 h, pH 5.4, read-out: caEC50 24 hours
[4] = B311, 24 hours, Table V (values agree with pH 5.4 assay), read-out: caEC50 24 hours

Compound: Cc1nccn1CCCCc1ccc(CC(=O)N[C@@H](CO)C(=O)N[C@@H](CCCCN)C(=O)N[C@@H](Cc2ccccc2)C(=O)O)cc1 [Example 6, L-Alanine, 3-phenyl-N-[N^2-[N-[[4-[4-(2-methyl-1H-imidazol-1-yl)butyl]phenyl]acetyl]-L-seryl]-L-lysyl]-, bis-trifluoroacetate]
- inhibition at 10 µM (Candida albicans NMT; [2]): 36%
- EC50 [1, 3]: 80 µM

Compound: CN(C/C=C/C#CC(C)(C)C)Cc1cccc2ccccc12 [Terbinafine, terbinafine]
- EC50 (C. albicans 516): 3.2 µM
- EC50 (C.parasilosis): 0.2 µM
- EC50 (C.albicans, B311): 4.4 µM
- EC50 (C.lusitaniae): 0.4 µM
- EC50 (C.glabrata): > 100 µM
- EC50 (C.tropicalis): > 100 µM

Compound: Cc1nccn1CCCCc1ccc(CC(=O)N[C@@H](CO)C(=O)N[C@@H](CCCCN)C(=O)N[C@@H](C)C(=O)O)cc1 [Example 5, L-alanine, N-[N^2-[N-[[4-[4-(2-methyl-1H-imidazol-1-yl)butyl]phenyl]acetyl]-L-seryl]-L-lysyl]-, bis-trifluoroacetate]
- inhibition at 10 µM (Candida albicans NMT; [2]): 27%
- EC50 [1, 3]: 68 µM

Compound: NCCCCCCCCCCC(=O)N[C@@H](CO)C(=O)N[C@@H](CCCCN)C(=O)N[C@@H](CC1CCCCC1)C(=O)O [Example 3, L-Alanine, 3-cyclohexyl-N-[[(11-amino-undecanoyl)-L-seryl]-L-lysyl]-, bis-trifluoroacetate] (H-[Aun]SK[Cha]-OH)
- inhibition at 11 µM (Candida albicans NMT; [2]): 80%
- EC50 [1, 3]: 33 µM

Compound: Cc1nccn1CCCCc1ccc(CC(=O)N[C@@H](CO)C(=O)N[C@@H](CCCCN)C(=O)NC(CC(=O)O)C2CCCCC2)cc1 (mixture of isomers) [Example 9, Lysinamide, N-[1-Cyclohexyl-2-carboxyethyl]-N^2-[N-[[4-[4-(2-methyl-1H-imidazol-1-yl)butyl]phenyl]acetyl]-L-seryl]-, ±, bis-trifluoroacetate]
- IC50 (Candida albicans NMT): 6 µM
- EC50 [1, 4]: > 100 µM

Compound: Cc1nccn1CCCCc1ccc(CC(=O)N[C@@H](CO)C(=O)N[C@@H](CCCCN)C(=O)N[C@@H](CC(C)C)C(=O)O)cc1 [Example 8, L-Leucine, N-[N^2-[N-[[4-[4-(2-Methyl-1H-imidazol-1-yl)butyl]phenyl]acetyl]-L-seryl]-L-lysyl]-, bis-trifluoroacetate]
- inhibition at 10 µM (Candida albicans NMT; [2]): 78%
- EC50 [1, 3]: > 100 µM

Compound: Cc1nccn1CCCCc1ccc(CC(=O)N[C@@H](CO)C(=O)N[C@@H](CCCCN)C(=O)NC(CC(=O)O)C2CCCCCCC2)cc1 (mixture of isomers) [Example 10, Lysinamide, N-[1-Cyclooctyl-2-carboxyethyl]-N^2-[N-[[4-[4-(2-methyl-1H-imidazol-1-yl)butyl]phenyl]acetyl]-L-seryl]-, ±, bis-trifluoroacetate]
- inhibition at 10 µM (Candida albicans NMT; @ 10 μM, read-out: % inhibition of caNMT): 40%
- EC50 [1, 4]: > 100 µM

Compound: Cc1nccn1CCCCc1ccc(CC(=O)N[C@@H](CO)C(=O)N[C@@H](CCCCN)C(=O)N[C@H](CC2CCCCC2)C(=O)O)cc1 [Example 11, D-alanine, 3-cyclohexyl-N-[N^2-[N-[[4-[4-(2-methyl-1H-imidazol-1-yl)butyl]phenyl]acetyl]-L-seryl]-L-lysyl]-, bis-trifluoroacetate]
- IC50 (Candida albicans NMT): 18 µM
- EC50 [1, 3]: > 100 µM

Compound: CC[C@H](C)[C@H](NC(=O)[C@H](CCCCN)NC(=O)[C@H](CO)NC(=O)Cc1ccc(CCCCn2ccnc2C)cc1)C(=O)O [Example 7, L-iso-leucine, N-[N^2-[N-[[4-[4-(2-methyl-1H-imidazol-1-yl)butyl]phenyl]acetyl]-L-seryl]-L-lysyl]-, bis-trifluoroacetate]
- IC50 (Candida albicans NMT): 100 µM
- EC50 [1, 4]: 97 µM

Compound: CC(C)C[C@H](NC(=O)[C@H](CCCCN)NC(=O)[C@H](CO)NC(=O)CCCCCCCCCCN)C(=O)O [Example 4, L-leucine, N-[[(11-amino-undecanoyl)-L-seryl]-L-lysyl]-, bis-trifluoroacetate] (H-[Aun]SKL-OH)
- IC50 (Candida albicans NMT): 6.7 µM
- EC50 [1, 3]: 63 µM
